Data on eight molecules can be found in US9936701B2, “Herbicidal compounds” (Syngenta Participations AG, priority 2013, dated 2018).

Data set [1] has as its system a variety of test species. Description: Pre-emergence herbicidal activity (glasshouse, sprayed one day after sowing, evaluated after 13 days). The format is in vivo. The arrangement: key: 5=total damage to plant; 0=no damage to plant. As to conditions: application pre-emergence, rate 1000 g/Ha, scale 0-5. The method, boiled down: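 Compounds are applied pre-emergence as an aqueous spray, formulated in 50:50 acetone/water containing 0.5% Tween 20, to pots sown one day earlier. Plants grow in a controlled glasshouse and are scored 13 days later for damage from 0 to 5.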

Data set [2] has as its system a variety of test species. Description: Post-emergence herbicidal activity (glasshouse, sprayed after 8 days cultivation, evaluated after 13 days). As to conditions: rate 1000 g/Ha, scale 0-5. The class given is in vivo. Also on record: key: 5=total damage to plant; 0=no damage to plant. The gist of the method:
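Foliar application to 8-day-old plants using a 0.5% Tween 20 acetone/water carrier; phytotoxicity is scored visually from 0 to 5 after 13 days of growth at 24/16 °C day/night.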

Regarding `CCOC1=C(C)CN(c2cc(C(C)(C)C#N)on2)C1=O` [D8], the melting point (commonly the temperature, or range, at which the solid turns liquid) fell in the range of 127 to 129 °C. For the same molecule, in data set [1], the “Pre-emergence herbicidal damage score, ABUTH” value was 3; the “Pre-emergence herbicidal damage score, ALOMY” value was 2; the “Pre-emergence herbicidal damage score, AMARE” value turned out to be 4; the “Pre-emergence herbicidal damage score, ECHCG” value came to 3. Besides, in data set [1], the “Pre-emergence herbicidal damage score, SETFA” value worked out at 4 and the “Pre-emergence herbicidal damage score, ZEAMX” value was 2. In data set [2], the “ABUTH (Abutilon theophrasti) damage score, application post-emergence” value (from here on “ABUTH … application post-emergence”) is 4; the “ALOMY (Alopecurus myosuroides) damage score, application post-emergence” value (“ALOMY … application post-emergence” for short) is listed as 3; the “AMARE (Amaranthus retroflexus) damage score, application post-emergence” value (shortened to “AMARE … application post-emergence”) amounted to 5; the “ECHCG (Echinochloa crus-galli) damage score, application post-emergence” value (“ECHCG … application post-emergence” below) is reported as 4. In data set [2], the “SETFA (Setaria faberi) damage score, application post-emergence” value (from here on “SETFA (Setaria faberi) damage score”) came to 3 and the “ZEAMX (Zea mays) damage score, application post-emergence” value (shortened to “ZEAMX (Zea mays) damage score”) is reported as 0.
`CC1=C(Cl)C(=O)N(c2cc(C3CC3)on2)C1O` (stereo not shown) [A22] registered a melting point of 174 to 176 °C. Further, in data set [1], the “Pre-emergence herbicidal damage score, ABUTH” value is 5; the “Pre-emergence herbicidal damage score, ALOMY” value was 4; the “Pre-emergence herbicidal damage score, AMARE” value was 4; the “Pre-emergence herbicidal damage score, ECHCG” value is given as 5. Further, in data set [1], the “Pre-emergence herbicidal damage score, SETFA” value is 5 and the “Pre-emergence herbicidal damage score, ZEAMX” value came to 1. In addition, in data set [2], the “ABUTH … application post-emergence” value is listed as 5; the “ALOMY … application post-emergence” value is on record as 5; the “AMARE … application post-emergence” value is reported as 5; the “ECHCG … application post-emergence” value came out at 5. Also, in data set [2], the “SETFA (Setaria faberi) damage score” value came to 5 and the “ZEAMX (Zea mays) damage score” value was 4.
As for `C=CC(C)(C)c1onc(N2C(=O)C(Cl)=C(C)C2O)c1C#N` (stereo not shown) [A66], the melting point lay in the range of 150 to 152 °C. Moreover, in data set [1], the “Pre-emergence herbicidal damage score, ABUTH” value came to 5; the “Pre-emergence herbicidal damage score, ALOMY” value amounted to 3; the “Pre-emergence herbicidal damage score, AMARE” value came to 5; the “Pre-emergence herbicidal damage score, ECHCG” value worked out at 5. In data set [1], the “Pre-emergence herbicidal damage score, SETFA” value came to 4 and the “Pre-emergence herbicidal damage score, ZEAMX” value was 1. Moreover, in data set [2], the “ABUTH … application post-emergence” value was 5; the “ALOMY … application post-emergence” value stood at 5; the “AMARE … application post-emergence” value came to 5; the “ECHCG … application post-emergence” value stood at 5. Further, in data set [2], the “SETFA (Setaria faberi) damage score” value is given as 5 and the “ZEAMX (Zea mays) damage score” value is on record as 3.
The molecule `CC1=C(Cl)C(=O)N(c2noc(C(C)(C)C)c2F)C1O` (stereo not shown) [A19, 1-(5-tert-butyl-4-fluoro-isoxazol-3-yl)-4-chloro-2-hydroxy-3-methyl-2H-pyrrol-5-one] yielded a melting point of 98 to 100 °C. In data set [1], the “Pre-emergence herbicidal damage score, ALOMY” value was 4; the “Pre-emergence herbicidal damage score, AMARE” value worked out at 5; the “Pre-emergence herbicidal damage score, ECHCG” value is 5; the “Pre-emergence herbicidal damage score, SETFA” value is listed as 5. In data set [2], the “ALOMY … application post-emergence” value is reported as 5; the “AMARE … application post-emergence” value was 5; the “ECHCG … application post-emergence” value turned out to be 5; the “SETFA (Setaria faberi) damage score” value is 5.
`CCC(C)(C)c1onc(N2C(=O)C(C)=C(OC)C2O)c1C#N` (stereo not shown) [G5] returned a melting point of 122 to 124 °C. In data set [1], the “Pre-emergence herbicidal damage score, ABUTH” value was determined as 5; the “Pre-emergence herbicidal damage score, ALOMY” value stood at 3; the “Pre-emergence herbicidal damage score, AMARE” value is 5; the “Pre-emergence herbicidal damage score, ECHCG” value is recorded as 5. Further, in data set [1], the “Pre-emergence herbicidal damage score, SETFA” value is given as 5 and the “Pre-emergence herbicidal damage score, ZEAMX” value turned out to be 2. In data set [2], the “ABUTH … application post-emergence” value is on record as 5; the “ALOMY … application post-emergence” value is on record as 5; the “AMARE … application post-emergence” value stood at 5; the “ECHCG … application post-emergence” value came to 5. Also, in data set [2], the “SETFA (Setaria faberi) damage score” value amounted to 5 and the “ZEAMX (Zea mays) damage score” value is 3.
`CC1=C(Cl)C(=O)N(c2noc(C(C)(C)C)c2Br)C1O` (stereo not shown) [A23, 1-(4-bromo-5-tert-butyl-isoxazol-3-yl)-4-chloro-2-hydroxy-3-methyl-2H-pyrrol-5-one] yielded a melting point of 158 to 160 °C. In data set [1], the “Pre-emergence herbicidal damage score, ABUTH” value is reported as 5; the “Pre-emergence herbicidal damage score, ALOMY” value was 4; the “Pre-emergence herbicidal damage score, AMARE” value was 5; the “Pre-emergence herbicidal damage score, ECHCG” value is on record as 5. For the same molecule, in data set [1], the “Pre-emergence herbicidal damage score, SETFA” value amounted to 3 and the “Pre-emergence herbicidal damage score, ZEAMX” value is recorded as 3. In addition, in data set [2], the “ABUTH … application post-emergence” value is reported as 5; the “ALOMY … application post-emergence” value was 5; the “AMARE … application post-emergence” value was 5; the “ECHCG … application post-emergence” value turned out to be 5. Further, in data set [2], the “SETFA (Setaria faberi) damage score” value was 5 and the “ZEAMX (Zea mays) damage score” value was 4.
In the case of `CC1=C(Br)C(=O)N(c2noc(C(C)C)c2C#N)C1O` (stereo not shown) [A61], the melting point lay in the range of 127 to 129 °C. Besides, in data set [1], the “Pre-emergence herbicidal damage score, ABUTH” value is on record as 5; the “Pre-emergence herbicidal damage score, ALOMY” value was determined as 4; the “Pre-emergence herbicidal damage score, AMARE” value is on record as 5; the “Pre-emergence herbicidal damage score, ECHCG” value is 5. For the same molecule, in data set [1], the “Pre-emergence herbicidal damage score, SETFA” value was 5 and the “Pre-emergence herbicidal damage score, ZEAMX” value is listed as 3. Further, in data set [2], the “ABUTH … application post-emergence” value worked out at 5; the “ALOMY … application post-emergence” value turned out to be 5; the “AMARE … application post-emergence” value came out at 5; the “ECHCG … application post-emergence” value was 5. Moreover, in data set [2], the “SETFA (Setaria faberi) damage score” value was 5 and the “ZEAMX (Zea mays) damage score” value was found to be 3.
Take `CCCC1=C(Cl)C(=O)N(c2noc(C(C)(C)C)c2C#N)C1O` (stereo not shown) [A54]: the melting point is 133 to 135 °C. In addition, in data set [1], the “Pre-emergence herbicidal damage score, ABUTH” value came out at 5; the “Pre-emergence herbicidal damage score, ALOMY” value was determined as 4; the “Pre-emergence herbicidal damage score, AMARE” value is listed as 5; the “Pre-emergence herbicidal damage score, ECHCG” value was determined as 5. For the same molecule, in data set [1], the “Pre-emergence herbicidal damage score, SETFA” value stood at 5 and the “Pre-emergence herbicidal damage score, ZEAMX” value was determined as 4. In data set [2], the “ABUTH … application post-emergence” value was found to be 5; the “ALOMY … application post-emergence” value is listed as 5; the “AMARE … application post-emergence” value was determined as 5; the “ECHCG … application post-emergence” value stood at 5. Also, in data set [2], the “SETFA (Setaria faberi) damage score” value is given as 5 and the “ZEAMX (Zea mays) damage score” value is reported as 5.
